Results on 18 compounds are retold here after PubChem BioAssay AID248 (DTP/NCI, 2004).

Where “and” joins values, the source holds several entries; their conditions need not be identical. Equal entries are not always repeated. Toxic doses and inconclusive results are not listed.

For the assay, the system named is L1210 leukemia ip in BDF1 mice, survival T/C. Put plainly: NCI In Vivo Anticancer Drug Screen. Data for tumor model L1210 Leukemia (intraperitoneal) in B6D2F1 (BDF1) mice. The note with it: endpoint: mean survival time, higher = longer survival. The procedure, abridged: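 Tumor cells were implanted, animals were treated, and survival was followed. The result divides the treated measurement by the vehicle-control measurement.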

The mark [1] stands for this setting: dose: 100.0 mg/kg/injection, schedule: Q01DX009 (ip), vehicle: Klucel (hydroxypropylcellulose) (HPC).
[2] abbreviates: dose: 100.0 mg/kg/injection, schedule: Q04DX002 (ip), vehicle: Klucel (hydroxypropylcellulose) (HPC).
Setting [3] is: dose: 100.0 mg/kg/injection, schedule: Q04DX003 (ip), vehicle: Klucel (hydroxypropylcellulose) (HPC).
Setting [4] is: dose: 200.0 mg/kg/injection, schedule: Q01DX009 (ip), vehicle: Klucel (hydroxypropylcellulose) (HPC).
Where [5] appears, read: dose: 200.0 mg/kg/injection, schedule: Q04DX002 (ip), vehicle: Klucel (hydroxypropylcellulose) (HPC).
[6] abbreviates: dose: 200.0 mg/kg/injection, schedule: Q04DX003 (ip), vehicle: Klucel (hydroxypropylcellulose) (HPC).
Setting [7] is: dose: 400.0 mg/kg/injection, schedule: Q01DX009 (ip), vehicle: Klucel (hydroxypropylcellulose) (HPC).
Setting [8] is: dose: 400.0 mg/kg/injection, schedule: Q04DX002 (ip), vehicle: Klucel (hydroxypropylcellulose) (HPC).
[9] abbreviates: dose: 400.0 mg/kg/injection, schedule: Q04DX003 (ip), vehicle: Klucel (hydroxypropylcellulose) (HPC).

`CCOC(=O)c1ccc(NCc2cnc3nc(N)nc(N)c3n2)cc1`: the T/C was 106 % of control (dose: 3.0 mg/kg/injection, schedule: Q01DX009 (ip), vehicle: other); 102 % of control (dose: 6.0 mg/kg/injection, schedule: Q01DX009 (ip), vehicle: other); 98 % of control (dose: 12.0 mg/kg/injection, schedule: Q01DX009 (ip), vehicle: other); 98 % of control (dose: 24.0 mg/kg/injection, schedule: Q01DX009 (ip), vehicle: other).
On to `N#CCCN(C(=S)Nc1cccc(C(F)(F)F)c1)C1CCCCC1`, for which the T/C is 96 % of control (dose: 100.0 mg/kg/injection, schedule: Q01DX001 (ip), vehicle: Klucel (hydroxypropylcellulose) (HPC)); 107 % of control and 108 % of control under setting [1]; 102 % of control and 104 % of control under setting [2]; 98 % of control under setting [3]; 90 % of control (dose: 200.0 mg/kg/injection, schedule: Q01DX001 (ip), vehicle: Klucel (hydroxypropylcellulose) (HPC)); 101 % of control and 107 % of control under setting [4]. The T/C is 108 % of control and 114 % of control under setting [5]; 97 % of control under setting [6]; 98 % of control (dose: 400.0 mg/kg/injection, schedule: Q01DX001 (ip), vehicle: Klucel (hydroxypropylcellulose) (HPC)); 96 % of control and 112 % of control under setting [7]; 100 % of control and 101 % of control under setting [8]; 97 % of control under setting [9].
Take `CSc1nnnc2ccccc12`: the T/C is 113 % of control (dose: 37.5 mg/kg/injection, schedule: Q04DX002 (ip), vehicle: saline with Tween-80) and 92 % of control (dose: 75.0 mg/kg/injection, schedule: Q04DX002 (ip), vehicle: saline with Tween-80).
As to `O=[N+]([O-])c1cc2c3ccccc3ccc2c2ccccc12`, the T/C under setting [1] was 96 % of control; the T/C under setting [3] is 95 % of control; the T/C under setting [4] was 94 % of control; the T/C under setting [6] was 97 % of control; the T/C under setting [7] is 100 % of control; the T/C under setting [9] was 94 % of control.
As to `O=C1c2ccccc2C(=O)c2c3c(cc(NCCNCCO)c21)N(CCO)CCN3`, the T/C (dose: 25.0 mg/kg/injection, schedule: Q01DX009 (ip), vehicle: DMSO) is 119 % of control; the T/C (dose: 50.0 mg/kg/injection, schedule: Q01DX009 (ip), vehicle: DMSO) was 121 % of control; the T/C (dose: 200.0 mg/kg/injection, schedule: Q01DX009 (ip), vehicle: DMSO) is 122 % of control.
With `C=NNC(=O)c1ccncc1`, the T/C by setting is: (dose: 100.0 mg/kg/injection, schedule: Q04DX003 (ip), vehicle: saline with Tween-80) 89 % of control; (dose: 200.0 mg/kg/injection, schedule: Q04DX003 (ip), vehicle: saline with Tween-80) 94 % of control; (dose: 400.0 mg/kg/injection, schedule: Q04DX003 (ip), vehicle: saline with Tween-80) 88 % of control.
As for `CCOC(=O)C(Br)CCCC(Br)C(=O)OCC` (stereo unspecified), the T/C is, setting by setting: (dose: 100.0 mg/kg/injection, schedule: Q01DX009 (ip), vehicle: saline with Tween-80) 90 % of control; (dose: 400.0 mg/kg/injection, schedule: Q01DX009 (ip), vehicle: saline with Tween-80) 89 % of control.
In the case of `NC(N)=NN(CCN(N=O)N=C(N)N)N=O`, the T/C reads like this: under setting [2], 96 % of control; under setting [5], 104 % of control; under setting [8], 86 % of control.
On to `CC(=O)OCC1OC(n2cc(C)c(=O)[nH]c2=O)C(Nc2ccc([N+](=O)[O-])cc2[N+](=O)[O-])C(OC(C)=O)C1OC(C)=O` (stereo unspecified), for which the T/C is, setting by setting: (dose: 50.0 mg/kg/injection, schedule: Q01DX001 (ip), vehicle: carboxymethylcellulose (CMC)) 97 % of control; (dose: 100.0 mg/kg/injection, schedule: Q01DX001 (ip), vehicle: carboxymethylcellulose (CMC)) 94 % of control; (dose: 200.0 mg/kg/injection, schedule: Q01DX001 (ip), vehicle: carboxymethylcellulose (CMC)) 94 % of control; (dose: 400.0 mg/kg/injection, schedule: Q01DX001 (ip), vehicle: carboxymethylcellulose (CMC)) 89 % of control.
Take `C[As](C)Sc1ncccn1`: the T/C runs as follows: (dose: 6.25 mg/kg/injection, schedule: Q01DX009 (ip), vehicle: Klucel (hydroxypropylcellulose) (HPC)) 100 % of control; (dose: 12.5 mg/kg/injection, schedule: Q01DX009 (ip), vehicle: Klucel (hydroxypropylcellulose) (HPC)) 103 % of control; (dose: 12.5 mg/kg/injection, schedule: Q04DX003 (ip), vehicle: Klucel (hydroxypropylcellulose) (HPC)) 98 % of control; (dose: 25.0 mg/kg/injection, schedule: Q04DX003 (ip), vehicle: Klucel (hydroxypropylcellulose) (HPC)) 95 % of control.
With `NC(N)=N/N=C(\c1ccccc1)C(O)c1ccccc1` (stereo unspecified), the T/C (dose: 15.0 mg/kg/injection, schedule: Q01DX Z (ip), vehicle: carboxymethylcellulose (CMC)) was 106 % of control; the T/C (dose: 30.0 mg/kg/injection, schedule: Q01DX Z (ip), vehicle: carboxymethylcellulose (CMC)) was 101 % of control; the T/C (dose: 60.0 mg/kg/injection, schedule: Q01DX Z (ip), vehicle: carboxymethylcellulose (CMC)) was 102 % of control; the T/C (dose: 60.0 mg/kg/injection, schedule: Q01DX Z (oral), vehicle: carboxymethylcellulose (CMC)) was 96 % of control; the T/C (dose: 120.0 mg/kg/injection, schedule: Q01DX Z (ip), vehicle: carboxymethylcellulose (CMC)) was 98 % of control; the T/C (dose: 120.0 mg/kg/injection, schedule: Q01DX Z (oral), vehicle: carboxymethylcellulose (CMC)) was 90 % of control. The T/C (dose: 240.0 mg/kg/injection, schedule: Q01DX Z (oral), vehicle: carboxymethylcellulose (CMC)) was 90 % of control and the T/C (dose: 480.0 mg/kg/injection, schedule: Q01DX Z (oral), vehicle: carboxymethylcellulose (CMC)) was 93 % of control.
On to `CC(C)(C)OC(=O)COc1cccc([N+](=O)[O-])c1`, for which the T/C was 114 % of control under setting [1], 102 % of control under setting [4] and 100 % of control under setting [7].
For `OCC1OC(n2ncc3c(=S)nc[nH]c32)C(O)C1O` (stereo unspecified), the T/C runs as follows: (dose: 12.5 mg/kg/injection, schedule: Q01DX005 (ip), vehicle: other) 103 % of control; (dose: 25.0 mg/kg/injection, schedule: Q01DX005 (ip), vehicle: other) 95 % of control; (dose: 50.0 mg/kg/injection, schedule: Q01DX005 (ip), vehicle: other) 97 % of control; (dose: 100.0 mg/kg/injection, schedule: Q01DX005 (ip), vehicle: other) 98 % of control; (dose: 200.0 mg/kg/injection, schedule: Q01DX005 (ip), vehicle: other) 98 % of control.
Consider `CC1(C)CN1P(=O)(Oc1ccccc1)N1CC1(C)C` (stereo unspecified), for which, under “dose: 88.0 mg/kg/injection, schedule: Q01DX001 (ip), vehicle: carboxymethylcellulose (CMC)”, the T/C is 111 % of control.
On to `CCOC(=O)c1ccc(O)c(NC(C)=O)c1`, for which the T/C by setting is: under setting [1], 95 % of control; under setting [3], 95 % of control; under setting [4], 94 % of control; under setting [6], 100 % of control; under setting [7], 94 % of control; under setting [9], 91 % of control.
On to `CC1CC2CCCC(O)=C2C(=O)O1` (stereo unspecified), for which the T/C was 102 % of control (dose: 100.0 mg/kg/injection, schedule: Q01DX001 (ip), vehicle: saline); 102 % of control (dose: 200.0 mg/kg/injection, schedule: Q01DX001 (ip), vehicle: saline); 105 % of control (dose: 400.0 mg/kg/injection, schedule: Q01DX001 (ip), vehicle: saline).
In the case of `CC(C)C(O)c1c[nH]c(=O)[nH]c1=O` (stereo unspecified), the T/C reads like this: under setting [1], 91 % of control; under setting [4], 105 % of control; under setting [7], 96 % of control.
On to `CN=C(N)c1ccc(NC(=O)c2ccc(C(=O)Nc3ccc(C(N)=NC)cc3)c(Cl)c2)cc1`, for which the T/C reads like this: (dose: 1.88 mg/kg/injection, schedule: Q01DX Z (ip), vehicle: saline) 117 % of control; (dose: 7.5 mg/kg/injection, schedule: Q01DX Z (ip), vehicle: saline) 252 % of control; (dose: 15.0 mg/kg/injection, schedule: Q01DX Z (ip), vehicle: saline) 183 % of control; (dose: 60.0 mg/kg/injection, schedule: Q01DX Z (oral), vehicle: saline) 105 % of control; (dose: 62.5 mg/kg/injection, schedule: Q## X010 (oral), vehicle: saline) 102 % of control; (dose: 120.0 mg/kg/injection, schedule: Q01DX Z (oral), vehicle: saline) 102 % of control. The T/C was 98 % of control (dose: 125.0 mg/kg/injection, schedule: Q## X010 (oral), vehicle: saline); 103 % of control (dose: 240.0 mg/kg/injection, schedule: Q01DX Z (oral), vehicle: saline); 102 % of control (dose: 500.0 mg/kg/injection, schedule: Q## X010 (oral), vehicle: saline).
